Results reported in patent US20220249416A1, “SYNERGISTIC COMBINATIONS OF SYNTHETIC LYSINE ANALOGS, DERIVATIVES, MIMETICS, OR PRODRUGS AND PHARMACEUTICAL AGENTS FOR ENHANCED EFFICACY” (priority 2019, published 2022).

Key:
HSV Strain 17syn+ = experiment: Acyclovir escape mutants after 10 serial passages in rabbit skin cells; format: cell-based, Herpes Simplex Virus; details: 10 passages, 50 μM acyclovir alone or with 2% tranexamic acid; plated with 100 μM acyclovir vs. none
rabbit skin cells = details: 48 h
[1] = test system: HO-1, a clinical isolate of HSV-1 that is multiple drug resistant; experiment: Viral yields of multiple drug resistant HSV-1 isolate HO-1, plaque assay; format: cell-based, Herpes Simplex Virus Type 1; details: 2% tranexamic acid, MOI 5, 24 hpi
HSV-1 = experiment: Effect of 2% TA on HSV-1 DNA replication; format: cell-based, Herpes Simplex Virus Type 1; details: MOI 0.05 and 0.5
cold sores = experiment: Topical tranexamic acid on cold sore outbreaks in human subjects; format: in vivo

SMILES | Ratio of Acyclovir Resistant (ACVr) Virus (HSV Strain 17syn+) | CC50 (rabbit skin cells) [mM] | effect on HO-1 viral yields [1] | replication of HSV DNA (HSV-1) | time to resolution of cold sore outbreak symptoms (cold sores; 3% (w/v) topically several times a day, three human subjects) [h] | cold sore outbreaks during one year (usual 3 to 5) (cold sores; 3 to 10% (w/v) applied to face daily for approximately one year, one subject) | time to healing of cold sore (cold sores; 5% (w/v) aqueous solution, about 0.25 mL, 5 times, one subject) [h] | outcome of cold sore outbreak (cold sores; 10% (w/v) topically a single time, one subject)
Nc1nc2c(ncn2COCCO)c(=O)[nH]1 [Acyclovir, acyclovir] | 0.0044 | – | – | – | – | – | – | –
NC[C@H]1CC[C@H](C(=O)O)CC1 [tranexamic acid] | – | 320 | effective | significantly reduces the replication of HSV DNA | ≤ 48 | one | ≤ 36 | the blister was gone and the outbreak had ceased
